In patent US9708314B2, “Heterocyclic amide compound” (NISSAN CHEMICAL INDUSTRIES, LTD., priority 2013, dated 2017):

Assays:
Type in all cases: in vivo
[1] = tested on: transplanted Oryza sativa; experiment: Test Example 1: effect on crop, application before weed generation in submerged conditions; settings: Application herbicide amount 320 g/ha; Seventeenth Table
How it was run: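 Water-diluted emulsion formulation is applied onto flood water (4 cm deep) covering alluvial soil on the day weed seeds are sown, after transplanting 2.5 leaf stage rice. Rates are expressed per hectare. Injury or control is graded 0–5 three weeks later.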

[2] = tested on: Chenopodium album; experiment: Test Example 4: herbicidal effect by application to foliage (diluvial soil, plastic box); settings: foliage application, 320 g/ha
How it was run: (§1)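 Greenhouse plants (25° C. to 30° C., 14 d, diluvial soil) receive a foliar spray of water-diluted emulsifiable formulation at defined g/ha. Grading after 3 weeks uses a six-step herbicidal-ratio scale, with 4 covering 70% to <90% and 1 covering 5% to <20%.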

[3] = tested on: Apera spica-venti.; experiment: as above; settings: foliage application, 320 g/ha
How it was run: as §1

[4] = tested on: Echinochloa crus-galli var. crus-galli; experiment: as above; settings: foliage application, 320 g/ha
How it was run: as §1

[5] = tested on: Abutilon theophrasti; experiment: as above; settings: foliage application, 320 g/ha
How it was run: as §1

[6] = tested on: Galium spurium; experiment: as above; settings: foliage application, 320 g/ha
How it was run: as §1

[7] = tested on: Avena fatua; experiment: as above; settings: foliage application, 320 g/ha
How it was run: as §1

[8] = tested on: Veronica persica; experiment: as above; settings: foliage application, 320 g/ha
How it was run: as §1

[9] = tested on: directly sowed Oryza sativa; experiment: Test Example 3: effect on crop by application to foliage (Wagner pot, water depth 0.1-0.5 cm); settings: Nineteenth Table; application to foliage; application herbicide amount 320 g/ha
How it was run: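 Post-emergence foliar application at a stated g/ha rate to plants grown 14 days from seed in alluvial soil, greenhouse 25–30 °C. Visual score after 3 weeks: 0 (≤5% effect) through 5 (≥90%).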

Row | Compound | a: transplanted Oryza sativa (effect on crop grade) [1] | O (Chenopodium album) herbicidal effect grade [2] | L (Apera spica-venti.) herbicidal effect grade [3] | H (Echinochloa crus-galli var. crus-galli) herbicidal effect grade [4] | M (Abutilon theophrasti) herbicidal effect grade [5] | Q (Galium spurium) herbicidal effect grade [6] | I (Avena fatua) herbicidal effect grade [7] | R (Veronica persica) herbicidal effect grade [8] | b (effect on crop grade) [9]
1 | Cn1nnnc1NC(=O)c1ccc(C(F)(F)F)n2c(-c3cc(Cl)cc(Cl)c3)nnc12 [2-064] | 3 (Herbicidal ratio of 40% or more and less than 70%) | 5 (Herbicidal ratio of 90% or more (almost completely withered)) | 0 (Herbicidal ratio of 5% or less (almost no effect)) | 3 (Herbicidal ratio of 40% or more and less than 70%) | 5 (Herbicidal ratio of 90% or more (almost completely withered)) | 1 (Herbicidal ratio of 5% or more and less than 20%) | 0 (Herbicidal ratio of 5% or less (almost no effect)) | 5 (Herbicidal ratio of 90% or more (almost completely withered)) | 0 (Herbicidal ratio of 5% or less (almost no effect))
2 | COc1ccc(Cc2nnc3c(C(=O)Nc4nnnn4C)ccc(C(F)(F)F)n23)cc1 [2-065] | 2 (Herbicidal ratio of 20% or more and less than 40%) | 5 (Herbicidal ratio of 90% or more (almost completely withered)) | 4 (Herbicidal ratio of 70% or more and less than 90%) | 5 (Herbicidal ratio of 90% or more (almost completely withered)) | 5 (Herbicidal ratio of 90% or more (almost completely withered)) | 3 (Herbicidal ratio of 40% or more and less than 70%) | 4 (Herbicidal ratio of 70% or more and less than 90%) | 5 (Herbicidal ratio of 90% or more (almost completely withered)) | 3 (Herbicidal ratio of 40% or more and less than 70%)
3 | CC(C)Nc1nnc2c(C(=O)Nc3nnnn3C)ccc(C(F)(F)F)n12 [2-066] | 3 (Herbicidal ratio of 40% or more and less than 70%) | 5 (Herbicidal ratio of 90% or more (almost completely withered)) | 3 (Herbicidal ratio of 40% or more and less than 70%) | 5 (Herbicidal ratio of 90% or more (almost completely withered)) | 4 (Herbicidal ratio of 70% or more and less than 90%) | 3 (Herbicidal ratio of 40% or more and less than 70%) | 2 (Herbicidal ratio of 20% or more and less than 40%) | 5 (Herbicidal ratio of 90% or more (almost completely withered)) | 3 (Herbicidal ratio of 40% or more and less than 70%)
4 | Cn1nnnc1NC(=O)c1ccc(C(F)(F)F)n2c([S+](C)[O-])nnc12 (stereo not drawn) [2-067] | 5 (Herbicidal ratio of 90% or more (almost completely withered)) | 5 (Herbicidal ratio of 90% or more (almost completely withered)) | 3 (Herbicidal ratio of 40% or more and less than 70%) | 5 (Herbicidal ratio of 90% or more (almost completely withered)) | 5 (Herbicidal ratio of 90% or more (almost completely withered)) | 4 (Herbicidal ratio of 70% or more and less than 90%) | 5 (Herbicidal ratio of 90% or more (almost completely withered)) | 5 (Herbicidal ratio of 90% or more (almost completely withered)) | 5 (Herbicidal ratio of 90% or more (almost completely withered))
5 | CCCSc1nnc2c(C(=O)Nc3nnnn3C)ccc(C(F)(F)F)n12 [2-068] | 5 (Herbicidal ratio of 90% or more (almost completely withered)) | 5 (Herbicidal ratio of 90% or more (almost completely withered)) | 3 (Herbicidal ratio of 40% or more and less than 70%) | 5 (Herbicidal ratio of 90% or more (almost completely withered)) | 5 (Herbicidal ratio of 90% or more (almost completely withered)) | 4 (Herbicidal ratio of 70% or more and less than 90%) | 3 (Herbicidal ratio of 40% or more and less than 70%) | 5 (Herbicidal ratio of 90% or more (almost completely withered)) | 5 (Herbicidal ratio of 90% or more (almost completely withered))
6 | CCC[S+]([O-])c1nnc2c(C(=O)Nc3nnnn3C)ccc(C(F)(F)F)n12 (stereo not drawn) [2-069] | 5 (Herbicidal ratio of 90% or more (almost completely withered)) | 5 (Herbicidal ratio of 90% or more (almost completely withered)) | 4 (Herbicidal ratio of 70% or more and less than 90%) | 5 (Herbicidal ratio of 90% or more (almost completely withered)) | 5 (Herbicidal ratio of 90% or more (almost completely withered)) | 4 (Herbicidal ratio of 70% or more and less than 90%) | 5 (Herbicidal ratio of 90% or more (almost completely withered)) | 5 (Herbicidal ratio of 90% or more (almost completely withered)) | 5 (Herbicidal ratio of 90% or more (almost completely withered))
7 | CCCS(=O)(=O)c1nnc2c(C(=O)Nc3nnnn3C)ccc(C(F)(F)F)n12 [2-070] | 4 (Herbicidal ratio of 70% or more and less than 90%) | 5 (Herbicidal ratio of 90% or more (almost completely withered)) | 4 (Herbicidal ratio of 70% or more and less than 90%) | 5 (Herbicidal ratio of 90% or more (almost completely withered)) | 4 (Herbicidal ratio of 70% or more and less than 90%) | 4 (Herbicidal ratio of 70% or more and less than 90%) | 5 (Herbicidal ratio of 90% or more (almost completely withered)) | 5 (Herbicidal ratio of 90% or more (almost completely withered)) | 3 (Herbicidal ratio of 40% or more and less than 70%)
8 | CC(C)CSc1nnc2c(C(=O)Nc3nnnn3C)ccc(C(F)(F)F)n12 [2-071] | 4 (Herbicidal ratio of 70% or more and less than 90%) | 5 (Herbicidal ratio of 90% or more (almost completely withered)) | 1 (Herbicidal ratio of 5% or more and less than 20%) | 5 (Herbicidal ratio of 90% or more (almost completely withered)) | 4 (Herbicidal ratio of 70% or more and less than 90%) | 3 (Herbicidal ratio of 40% or more and less than 70%) | 2 (Herbicidal ratio of 20% or more and less than 40%) | 5 (Herbicidal ratio of 90% or more (almost completely withered)) | 3 (Herbicidal ratio of 40% or more and less than 70%)
